Test results reported in patent US20240240145A1, “METHODS AND COMPOSITIONS FOR GENERATING MITOCHONDRIA REPLACED LYMPHOID CELLS” (Imel Biotherapeutics, Inc., priority 2021, published 2024).

How the values were obtained:
human GJ T cells = assay: TaqMan SNP assay of transfer of EPC100 mitochondria to human GJ T cells cultured with rapamycin; format: cell-based; conditions: for portion of donor mtDNA detected in T cells: after 7 days, EPC100 donor mitochondria
Experimental: Isolation and Cell Culture of Human T cells: Venous heparinized blood was taken according to the standard procedures from the median cubital vein. Human peripheral blood mononuclear cells (PBMC) were isolated from human peripheral blood using density-gradient centrifugation with 1.077 g/ml percoll (GE Healthcare Life Sciences, Buckinghamshire, England). Cells were cultured in TexMACS medium (Miltenyi Biotec) supplemented with 10% fetal bovine serum, 1% penicillin/streptomycin (Thermo Fisher Scientific incorporated), […] of IL-7, and […] of IL-15 on cell culture plates coated with anti-CD3 antibody and anti-CD28 antibody (Miltenyi Biotec). Cells were incubated at 37° C. in a humidified 5% CO2 incubator.
Mitochondrial Isolation and Transfer to Human T cells: The immortalized human uterine endometrial gland-derived mesenchymal cell line, EPC100 (Japanese Collection of Research Bioresources Cell Bank, JCRB1538) was used as an exemplary donor of exogenous mitochondria for mitochondrial transfer to human primary T cells by using the same protocol as that of murine protocol.
TaqMan Single Nucleotide Polymorphism (SNP) Assay: Based upon the differences in the mitochondrial HVR1 sequences of human GJ T cells and EPC100 cells, and the mitochondrial ND1 of B6 mouse and NZB mouse, the probes and primer set forth in Tables 1 and 2 were designed, which provide sensitivity and specificity in the TaqMan SNP assay. To determine mutation ratios, we designed wild-type and mutant allele-specific TaqMan probes for the TaqMan SNP assay. The extracted DNA (1 ng) was used for quantitative PCR with the TaqMan Universal PCR Master Mix kit (Thermo Fisher Scientific Incorporated) on a CFX connect real-time system (Bio-Rad Laboratories, Incorporated) under the following conditions: 40 cycles of PCR (95° ° C. for 15 see and 60° ° C. for 1 min) after initial denaturation (95° ° C. for 10 min). […] The mtDNA copy number was estimated from the content ratio of 12S rRNA on mtDNA and ACTB (or Actb) on nuclear DNA by delta cycle threshold-based relative quantification. […]

mouse NZB T cells = assay: TaqMan SNP assay of replacement of NZB T cell mtDNA with B6 MEF mtDNA after culture with rapamycin; format: cell-based; conditions: 40 μg B6 MEF mitochondria
Experimental: Isolation and Cell Culture of Primary Mouse T lymphocytes: All the animal experiments were performed according to the animal experiment guidelines issued by the Animal Care and Use Committee of our institution (M2019-536). For mouse T lymphocytes isolation, spleens were removed from mouse after anesthetized and sacrificed. Spleens were washed with PBS (FUJIFILM Wako Pure Chemical Corp.), then mashed and filtrated to extract splenocytes. Mouse T cells were highly purified from splenocytes by immunomagnetic negative selection using EasySep mouse T cell isolation kit (Veritas, Santa Clara, CA, USA) according to the manufacturer's recommendations. Isolated mouse T cells were cultured in Advanced RPMI1640 medium supplemented with 10% FBS, 1% penicillin/streptomycin, 20 mM L-glutamine (Thermo Fisher Scientific incorporated), […] recombinant human IL-2 (PeproTech, Rocky Hill, NJ, USA), which is activated with Dynabeads mouse T-activator CD3/CD28 (Thermo Fisher Scientific incorporated). Cells were incubated at 37 °C in a humidified 5% CO2 incubator.
Mitochondrial Isolation and Transfer to Mouse T cells: Mitochondria were isolated from B6 murine embryonic fibroblasts (MEF). […] The amounts of isolated mitochondria were expressed as protein concentration using a Bio-Rad protein assay kit (Bio-Rad Laboratories, incorporated, Richmond, CA, USA). […]

## CO[C@H]1C[C@@H]2CC[C@@H](C)[C@@](O)(O2)C(=O)C(=O)N2CCCC[C@H]2C(=O)O[C@H]([C@H](C)C[C@@H]2CC[C@@H](O)[C@H](OC)C2)CC(=O)[C@H](C)/C=C(\C)[C@@H](O)[C@@H](OC)C(=O)[C@H](C)C[C@H](C)/C=C/C=C/C=C/1C [rapamycin]
Human GJ T cells; 50 nM rapamycin
  portion of donor mtDNA detected in T cells: less than 40%
Human GJ T cells; 500 nM rapamycin
  portion of donor mtDNA detected in T cells: approximately 50%
Human GJ T cells; human GJ T cells contacted with EPC100 donor mitochondria in the presence of rapamycin (50 to 500 nM), no mtDNA depletion, FIG. 3B
  mtDNA content in T cells consisting of mtDNA from EPC100 cells: 40-50%
Mouse NZB T cells; centrifugation and two days of rapamycin treatment (100-1000 nM), FIG. 5A
  donor mtDNA in the recipient T cells: 45-80%
Mouse NZB T cells; day 7, rapamycin 100-1000 nM, FIG. 5B
  donor mtDNA in the recipient T cells: 70-90%
